Experiments:
C57BL/6 male mice [1] = assay: Dose-response of protection against total body X-ray irradiation: body weight, small intestine villus length (Example 5); assay type: in vivo
Experimental: C57BL/6 male mice (24.8±1.6 g in body weight) aged 10 weeks were divided into 6 groups: a vehicle control group, a JAC4 (200 mg/kg) treatment group, a vehicle control+radiation group, and JAC4 intervention (50 mg/kg, 100 mg/kg, and 200 mg/kg)+radiation groups, with 12 mice in each group. JAC4 or an equal volume of vehicle (polyethylene glycol:ethanol:physiological saline=47.5:7.5:50, v/v/v) was orally administered to the mice once daily for 7 consecutive days. After that, the mice in the radiation groups were subjected to total body X-ray irradiation (6 Gy). The JAC4 or vehicle treatment was continued for 3 days.
The body weights of the mice before and after the total body X-ray irradiation were measured, and the body weight curves are shown in FIG. 8.
HE staining was performed on the small intestine tissues of mice subjected to total body X-ray irradiation. The length of the small intestine villi in all groups was measured and the results were statistically analyzed. The specific procedures are as follows: 3 mice were randomly selected from each group for statistical analysis of their small intestine tissue HE staining images, and for each mouse, 6 fields of view were randomly selected for inspection (** p<0.01, *** p<0.001).

SPCA-1 cells = assay: Plate colony formation, SPCA-1 (Example 22); assay type: cell-based, human
Experimental: The cell proliferation capacity was determined by a plate colony formation experiment, with the following specific procedures.
1. SPCA-1 and BEAS-2B cells (or SPCA-1 and BEAS-2B cells transfected with JWA-knockdown plasmids) in the exponential growth phase were plated in 6-well plates at a specific amount. The number of plated cells is as follows
2. After the cells adhered to the container wall, the cells were treated (or not treated) with […] JAC4 and treated with X-ray of 0, 2, 4, or 6 Gy. The medium was replaced with a fresh medium containing JAC4 at the corresponding concentration once every 2 days (or the cells were treated with X-ray of 0, 2, 4, or 6 Gy after adhesion, and the medium was replaced with a fresh medium once every 2 days).
3. After the cells were cultured for 10-14 days, colonies were visually observed. The culture medium was discarded, and the cells were fixed with methanol for 10-20 min, stained with crystal violet for 10 min, slowly washed with flowing clear water thrice, photographed, and counted for colonies containing>50 cells.
4. The colony forming efficiency (CFE)=(number of colonies formed/number of seeded cells) 100% was calculated, and the cell survival fraction (SF)=(colony forming efficiency of treatment group/colony forming efficiency of 0 Gy group)×100% was calculated from the colony forming efficiency.

BEAS-2B cells = assay: γ-H2AX foci and Western blot (DSBs), BEAS-2B (Example 22); assay type: cell-based, human
Experimental: To investigate the effect of JAC4 in combination with X-ray on DSBs in SPCA-1 and BEAS-2B cells, SPCA-1 and BEAS-2B cells were pretreated with 10 μM JAC4 for 24 h and 4 Gy X-ray for 2 h, and then subjected to γ-H2AX fluorescent labeling and Western immunoblot (see Example 4 for detailed procedures).

C57BL/6 male mice [2] = assay: Body weight, spleen and thymus indexes and HE staining after total body irradiation (Example 3); assay type: in vivo
Experimental: C57BL/6 male mice (24.8±1,6 g in body weight) aged 10 weeks were divided into 4 groups of 8 mice each. After acclimating to the environment, JAC4 (100 mg/kg) or an equal volume of vehicle (polyethylene glycol:ethanol:physiological saline=47.5:7.5:50, v/v/v) was orally administered to the mice once daily for 7 consecutive days. After that, the mice in one JAC4 treatment group and one vehicle group were subjected to total body X-ray irradiation (6 Gy) and JAC4 or vehicle treatment was continued. After 3 days, the administration of JAC4 or vehicle was discontinued, and blood samples, small intestine tissues, and thymus and spleen tissues were collected 4 days later.
HE staining was performed on spleen tissues and thymus tissues from mice in all groups, with procedures as follows:
(1) Section deparaffinization: 1) xylene I treatment for 5 min; 2) xylene II treatment for 5 min; 3) xylene III treatment for 5 min; 4) 100% ethanol treatment for 5 min; 5) 100% ethanol II treatment for 5 min; 6) 95% ethanol treatment for 5 min; 7) 90% ethanol treatment for 5 min; 8) 85% ethanol treatment for 5 min; 9) 70% ethanol treatment for 5 min; 10) 60% ethanol treatment for 5 min.
(2) HE staining: After being rinsed with double-distilled water, the sections were stained with hematoxylin solution for 6 min, differentiated with 0.5% hydrochloric acid in alcohol for a short period, and then placed in double-distilled water for bluing. When the chromatin within the cell nuclei was clearly visible under a microscope, the sections were stained with 0.5% eosin for 30 s.

[3] = JAC4 100 mg/kg oral + TBI 6 Gy vs vehicle + radiation
[4] = non-radiation, JAC4 100 mg/kg oral

## c1ccc(CSc2nnc(C3COc4ccccc4O3)o2)nc1 (centres unmarked) [JAC4]
C57BL/6 male mice [1]; JAC4 50, 100, 200 mg/kg oral + TBI 6 Gy vs vehicle+radiation
  body weight loss after radiation: slower body weight loss
C57BL/6 male mice [1]; day 3 after TBI 6 Gy, JAC4 50 mg/kg oral
  small intestine villus length: 249.42±27.19 μm
C57BL/6 male mice [1]; day 3 after TBI 6 Gy, JAC4 100 mg/kg oral
  small intestine villus length: 244.78±40.74 μm
C57BL/6 male mice [1]; day 3 after TBI 6 Gy, JAC4 200 mg/kg oral
  small intestine villus length: 212.43±27.99 μm
C57BL/6 male mice [1]; day 7 after TBI 6 Gy, JAC4 50 mg/kg oral
  small intestine villus length: 235.57±24.34 μm
C57BL/6 male mice [1]; day 7 after TBI 6 Gy, JAC4 100 mg/kg oral
  small intestine villus length: 254.95±28.91 μm
C57BL/6 male mice [1]; day 7 after TBI 6 Gy, JAC4 200 mg/kg oral
  small intestine villus length: 259.17±17.56 μm
C57BL/6 male mice [1]; non-radiation, JAC4 200 mg/kg oral
  small intestine villus length: 306.78±14.64 μm
SPCA-1 cells; SPCA-1, 10 μM JAC4 + X-ray vs X-ray monotherapy
  cell survival (radiosensitization curve): significantly reduced
SPCA-1 cells; SPCA-1, JAC4 in combination with X-ray
  number of colonies formed: decreased
BEAS-2B cells; 10 μM JAC4 24 h + 4 Gy X-ray 2 h vs X-ray treatment group
  formation of γ-H2AX foci: significantly reduced
BEAS-2B cells; 10 μM JAC4 + 4 Gy X-ray
  JWA expression level (Western blot): increased
  γ-H2AX protein expression level (Western blot): decreased
C57BL/6 male mice [2]; JAC4 100 mg/kg oral + TBI 6 Gy
  spleen index: 1.31 ± 0.18 mg/g
  thymus index: 1.63 ± 0.24 mg/g
C57BL/6 male mice [2]; [3]
  HE staining of spleen tissue after X-ray radiation: no significant difference between the vehicle control group and the JAC4 group
  HE staining of thymus tissue after X-ray radiation: no significant difference between the vehicle control group and the JAC4 group
C57BL/6 male mice [2]; JAC4 100 mg/kg oral, TBI 6 Gy
  degree of body weight loss: significantly less than that in the control group
C57BL/6 male mice [2]; [4]
  spleen index: 3.22 ± 0.26 mg/g
  thymus index: 2.51 ± 0.43 mg/g
